{"source": "patent US20240141445A1", "about": "“NOVEL METHOD FOR POOLED INTRON TAGGING FOR REAL TIME DRUG SCREENING” (CeMM - Forschungszentrum für Molekulare Medizin GmbH, priority 2019, published 2024)", "tested_on": "GFP-tagged proteins in HAP1 cells", "test": "GFP intron-tagged cell pool / arrayed clones, time-lapse imaging of protein levels and localization", "format": "cell-based", "experimental": "For the generation of lentiviral particles, HEK293T cells were transiently transfected with the intron-targeting library and packaging plasmids psPAX2, pMD2.G using PEI transfection. After 12 h the media was replaced with IMDM supplemented with 10% FBS and P/S. Viral supernatant was collected 48 h after transfection and stored at −80° C. HAP1 cells were transduced with virus and selected with puromycin for three days. Multiplicity of infection (MOI) was 0.2 and transduction was done at a coverage of 500×. After puromycin selection, cells were grown for one day in media without puromycin before being seeded for transfection (8 million cells per 15 cm dish, 48 million cells in total). One day after seeding, each dish was co-transfected with 20 μg pX330 expressing Cas9-BSD and the generic sgRNA and 10 μg EGFP donor plasmid with 90 μl Turbofection in 2.5 ml OptiMEM as described by the manufacturer. Transfection efficiency was approximately 10% as determined by a transfection done in parallel with pX330 Cas9-mCherry and the EGFP donor plasmid using the same ratio. The next day, cells were subjected to a transient selection using Blasticidin (10 μg/ml) for 24 h. After selection, cells were maintained in full media without Blasticidin and sorted five days after transfection by flow cytometry using a Sony Cell Sorter SH800ZD. 0.03% cells were GFP-positive and in total 24,300 of those GFP-positive cells were sorted and the cell population was expanded for 7 days before DNA was isolated to determine sgRNA abundance in the cell population.\nTo obtain clonal cell lines, cells were seeded at a concentration of 0.7 cells per well in 96-well cell culture plates. After 9 days of clonal expansion, 768 colonies were harvested using trypsin and cell suspensions were transferred in equal amounts to eight 96-well imaging plates (Perkin Elmer CellCarrier Ultra) and eight corresponding 96-well cell culture plates. After 24 h, cells on the imaging plates were imaged on a Perkin Elmer Opera Phenix High Content Screening System (5 fields of view per well, 63× water-immersion objective, confocal mode, excitation: 488 nm, […], 700 ms). Images were processed using Cell Profiler. To identify the intron-targeting sgRNAs expressed in imaged cells, multiplexed amplicon sequencing of the sgRNA regions was performed in the corresponding clones on the eight 96-well cell culture plates. Cells were lysed and cell lysates were used for PCR to amplify the sgRNA region in each clone using barcoded primers flanking the sgRNA region (36 different 5-mers added to the 5′end of the forward primer and 24 different 5-mers added to the 5′end of the reverse primer, 768 of all possible 864 combinations were used). PCR reactions were pooled and column purified before being send for sequencing by a commercial sequencing service. NGS reads were demultiplexed using Cutadapt (see Martin, M. EMBnet. journal, [S.I.], v. 17, n. 1, p. pp. 10-12, may 2011) and sgRNA read counts for each individual well were obtained using MAGeCK (see, Li (2014) Genome Biol 15, 554 (2014). For further analysis clones were excluded, for which either no cells in any of the 5 fields of view that were imaged were observed, no sequencing reads for the corresponding well were observed or for which polyclonal cell populations as determined by imaging or detection of multiple sgRNAs per well were observed. Using that strategy, images of 335 clones were obtained for which the expressed intron-targeting sgRNA corresponding to the tagged protein could be identified.\nLive cell imaging was performed on a PerkinElmer Opera Phenix microscope with excitation laser 488 nm, and emission filter 500-550 nm, 700 ms.\nIdentification of the expressed sgRNAs by in situ sequencing was performed by following and modifying published protocols, see, e.g., Feldman (2019) loc. cit; Ke (2013) Nat Methods 10, 857-60; and Larsson (2010) Nat Methods 7, 395-7. […]", "key": {"[1]": {"conditions": "clonal cell line, 1 μM (FIG. 10)"}}}
{"smiles": "CN(Cc1cnc2nc(N)nc(N)c2n1)c1ccc(C(=O)N[C@@H](CCC(=O)O)C(=O)O)cc1", "note": "[MTX, methotrexate]", "values": [{"measurement": "PADI1 protein level", "setting": "1 μM (FIG. 10)", "value": "decreases"}, {"measurement": "RUVBL1 protein level", "setting": "1 μM (FIG. 10)", "value": "decreases"}, {"measurement": "nuclear foci of GFP-tagged DNMT1", "setting": "1 μM (FIG. 10)", "value": "disappearance of nuclear DNMT1 foci"}, {"measurement": "nuclear signal of GFP-tagged NUDT21", "setting": "1 μM (FIG. 10)", "value": "gain of nuclear signal"}, {"measurement": "nuclear signal of GFP-tagged TPI1", "setting": "1 μM (FIG. 10)", "value": "gain of nuclear signal"}, {"measurement": "nuclear signal of GFP-tagged transcription factor DR1", "setting": "1 μM (FIG. 10)", "value": "gain of nuclear signal"}, {"measurement": "localization of GFP-tagged ACLY", "setting": "24 h treatment, 1 μM (FIG. 10)", "value": "increased nuclear localization"}, {"measurement": "localization of GFP-tagged RPA1", "setting": "[1]", "value": "formation of nuclear foci"}, {"measurement": "localization of GFP-tagged RPA2", "setting": "[1]", "value": "formation of nuclear foci"}]}
{"smiles": "Cc1sc2c(c1C)C(c1ccc(Cl)cc1)=N[C@@H](CC(=O)NCCCCCCCCNC(=O)COc1cccc3c1C(=O)N(C1CCC(=O)NC1=O)C3=O)c1nnc(C)n1-2", "note": "(some centres unmarked) [dBET6]", "values": [{"measurement": "localization of GFP-tagged AKAP8", "setting": "cell pool, FIG. 6e", "value": "gain of nuclear foci"}, {"measurement": "localization of GFP-tagged FUBP3", "setting": "cell pool, FIG. 6e", "value": "loss of subnuclear localization patterns"}, {"measurement": "localization of GFP-tagged MEAF1", "setting": "cell pool, FIG. 6e", "value": "loss of subnuclear localization patterns"}, {"measurement": "localization of GFP-tagged SFPQ", "setting": "cell pool, FIG. 6e", "value": "gain of nuclear foci"}, {"measurement": "nuclear intensity of GFP-tagged UNG", "setting": "cell pool, FIG. 6e", "value": "loss of nuclear intensity"}]}
